Data reported in paper PMC8067507, “Aryl Urea Based Scaffolds for Multitarget Drug Discovery in Anticancer Immunotherapies” (Pharmaceuticals, 2021).

Key:
[1] = test system: A549 (pulmonary adenocarcinoma); experiment: Cell proliferation assay (MTT); format: cell-based; details: Homo sapiens, A549, 48 h, 2 days incubation, average ± SD of three experiments
Description: (§1) The ability of Ureas 13–33 to inhibit cell proliferation was established by means of their IC50 values towards the human tumor cell lines HT-29 (colon adenocarcinoma), MCF-7 (breast adenocarcinoma), HeLa (epithelioid cervix carcinoma) and A549 (pulmonary adenocarcinoma), as well as towards the endothelial cell line HMEC-1 (human microvascular endothelial cells) and the non-tumor cell line HEK-293 (human embryonic kidney cells).
(§2) HT-29, MCF-7, HeLa, A549 and HEK-293 cell lines were maintained in Dulbecco’s modified Eagle’s medium (DMEM) containing glucose (1 g/L), glutamine (2 mM), penicillin (50 μg/mL), streptomycin (50 μg/mL), and amphotericin B (1.25 μg/mL), supplemented with 10% FBS. HMEC-1 cell line was maintained in Dulbecco’s modified Eagle’s medium (DMEM)/low glucose containing glutamine (2 mM), penicillin (50 μg/mL), streptomycin (50 μg/mL), and amphotericin B (1.25 μg/mL), supplemented with 10% FBS. For the development of tube formation assays in Matrigel, HMEC-1 cells were cultured in EGM-2MV Medium supplemented with EGM-2MV SingleQuots.
(§3) In 96-well plates, 3 × 10^3 (HeLa, A549, HMEC-1, HEK-293) or 5 × 10^3 (HT-29, MCF-7) cells per well were incubated with serial dilutions of the tested compounds in a total volume of 100 μL of their respective growth media. The 3-(4,5-dimethylthiazol-2-yl)-2,5-diphenyltetrazolium bromide (MTT; Sigma Chemical Co.) dye reduction assay in 96-well microplates was used. After 2 days of incubation (37 °C, 5% CO2 in a humid atmosphere), 10 μL of MTT (5 mg/mL in phosphate-buffered saline, PBS) was added to each well, and the plate was incubated for a further 3 h (37 °C). After that, the supernatant was discarded and replaced by 100 µL of DMSO to dissolve formazan crystals. The absorbance was then read at 540 nm by spectrophotometry. For all concentrations of compound, cell viability was expressed as the percentage of the ratio between the mean absorbance of treated cells and the mean absorbance of untreated cells. Three independent experiments were performed, and the IC50 values (i.e., concentration half inhibiting cell proliferation) were graphically determined using GraphPad Prism 4 software.

[2] = test system: HEK-293 (human embryonic kidney cells); experiment: Cell proliferation assay (MTT); format: cell-based; details: HEK293, 48 h, 2 days incubation, average ± SD of three experiments
Description: as §1, §2, §3

[3] = test system: HT-29 (colon adenocarcinoma); experiment: Cell proliferation assay (MTT); format: cell-based; details: Homo sapiens, HT-29, 48 h, 2 days incubation, average ± SD of three experiments
Description: as §1, §2, §3

[4] = test system: HeLa (epithelioid cervix carcinoma); experiment: Cell proliferation assay (MTT); format: cell-based; details: Homo sapiens, 48 h, 2 days incubation, average ± SD of three experiments
Description: as §1, §2, §3

[5] = test system: MCF-7 (breast adenocarcinoma); experiment: Cell proliferation assay (MTT); format: cell-based; details: Homo sapiens, MCF7, 48 h, 2 days incubation, average ± SD of three experiments
Description: as §1, §2, §3

[6] = molecular target: T1, PD-L1 (Homo sapiens, UniProt Q9NZQ7); experiment: PD-L1 quantification by flow cytometry in HT-29; format: cell-based; details: HT-29, 10 μM, 24 h, referred to control (DMSO)
Description: (§4) We evaluated the effect of the selected compounds on PD-L1 and on c-Myc proteins by flow cytometry after 24 h treatment at 10 μM concentration of compounds. Both, PD-L1 and c-Myc were relatively determined using DMSO treated cells as a negative control and BMS-8 as a positive one.
(§5) For the detection of total PD-L1 and c-Myc, cancer cells were seeded (3 × 10^5 cells/well) in 6-well plates and were incubated with the corresponding compounds for 24 h. Then they were collected, fixed, treated with 0.5% Triton^TM X-100 and stained with Alexa Fluor® 647 Rabbit monoclonal Anti-PD-L1 (ab215251) and FITC Rabbit monoclonal anti-c-Myc (ab223913).
(§6) We also checked results performing ELISA tests. For ELISA tests, lysates were collected, protein quantification was carried out by Bradford test and, then, PD-L1 and c-Myc were quantified using Human PD-L1 ELISA Kit 28-8 (ab214565) and c-Myc (Total) Human ELISA Kit (KHO2041), respectively, according to the manufacturer’s instructions.

[7] = test system: c-Myc; experiment: c-Myc quantification by flow cytometry in HT-29; format: cell-based, human; details: HT-29, 10 μM, 24 h, referred to control (DMSO)
Description: as §4, §5, §6

[8] = test system: c-Myc; experiment: c-Myc quantification by flow cytometry in A-549; format: cell-based, human; details: A-549, 10 μM, 24 h, referred to control (DMSO)
Description: as §4, §5, §6

[9] = test system: HT-29 cells; experiment: Cell proliferation evaluation in co-cultures: HT-29 with Jurkat T cells; format: cell-based, human; details: IFN-γ stimulated HT-29 co-cultured with Jurkat T cells, 10 µM, 24 h; five experiments
Description: We also studied the effect of Compounds 16, 23, 26 and 33 on tumor cell proliferation in the presence of PD-1 expressing Jurkat T-cells. For this assay, first interferon γ stimulated HT-29 cells were treated for 24 h with the selected compounds at 10 µM in presence of Jurkat T cells. Then, living cells were counted using trypan blue and a Neubauer chamber and by flow cytometry.
In 12-well plates, 10^5 HT-29 cells per well were seeded and incubated for 24 h with cell culture medium supplemented with IFN-γ (10 ng/mL; human, Invitrogen®) then medium was change by one containing 4 × 10^5 Jurkat T cells per well and 10 μM of the corresponding compound or DMSO for the control. After 24 h of incubation, supernatants were collected to determine Jurkat T cell living cells and, on the other hand, HT-29 cells were collected with trypsin. Both types of suspension cells were counted with the Neubauer chamber and trypan blue and also by flow cytometry.

[10] = molecular target: T1, PD-L1; experiment: PD-L1 quantification by flow cytometry in A-549; format: cell-based; parameters: endogenous in cells; host or cells: A-549 cancer cells; details: A-549, 10 μM, 24 h, referred to control (DMSO)
Description: as §4, §5, §6

[11] = test system: HMEC-1 (human microvascular endothelial cells); experiment: Cell proliferation assay (MTT); format: cell-based; details: HMEC-1, 48 h, 2 days incubation, average ± SD of three experiments
Description: as §1, §2, §3

[12] = test system: HMEC-1 cells; experiment: Tube formation inhibition assay; format: cell-based, human; details: HMEC-1 on Matrigel, 20 h incubation; average of three experiments
Description: as §2
Wells of an IBIDI μ-slide angiogenesis (IBIDI, Martinsried, Germany) were coated with 12 μL of Matrigel® (10 mg/mL, BD Biosciences) at 4 °C. After gelatinization at 37 °C for 30 min, HMEC-1 cells were seeded at 2 × 10^4 cells/well in 35 μL of culture medium on top of the Matrigel and were incubated 30 min at 37 °C while are attached. Then, compounds were added dissolved in 35 μL of culture medium and after 20 h of incubation at 37 °C, tube destruction was evaluated.

[13] = molecular target: T2, VEGFR-2 (Homo sapiens, UniProt P35968); experiment: VEGFR-2 quantification by flow cytometry in HMEC-1; format: cell-based; parameters: Both membrane and total VEGFR-2 were relatively determined using dimethyl sulfoxide (DMSO) treated cells as a negative control; endogenous in cells; host or cells: HMEC-1 (human microvascular endothelial cells); details: 10 µM, 24 h, relative to DMSO control
Description: (§7) We performed the study on both a HT-29 cancer cell line and a human microvessel endothelial cell line (HMEC-1). […] The effect of these selected derivatives on VEGFR-2, on HT-29 tumor cell line and on human microvessel endothelial cells (HMEC) was determined by flow cytometry technique. […] For these assays, cells were incubated for 24 h in the presence of the corresponding compounds at 10 µM concentration.

[14] = molecular target: T2, VEGFR-2; experiment: VEGFR-2 quantification by flow cytometry in HT-29; format: cell-based; parameters: Both membrane and total VEGFR-2 were relatively determined using dimethyl sulfoxide (DMSO) treated cells as a negative control; endogenous in cells; host or cells: HT-29 (colon adenocarcinoma) and HMEC-1 (human microvascular endothelial cells); details: 24 h; for Membrane VEGFR-2 (%) / Total VEGFR-2 (%): HT-29, 10 µM, relative to DMSO control
Description: as §7

T2 sequence (P35968 20-1356): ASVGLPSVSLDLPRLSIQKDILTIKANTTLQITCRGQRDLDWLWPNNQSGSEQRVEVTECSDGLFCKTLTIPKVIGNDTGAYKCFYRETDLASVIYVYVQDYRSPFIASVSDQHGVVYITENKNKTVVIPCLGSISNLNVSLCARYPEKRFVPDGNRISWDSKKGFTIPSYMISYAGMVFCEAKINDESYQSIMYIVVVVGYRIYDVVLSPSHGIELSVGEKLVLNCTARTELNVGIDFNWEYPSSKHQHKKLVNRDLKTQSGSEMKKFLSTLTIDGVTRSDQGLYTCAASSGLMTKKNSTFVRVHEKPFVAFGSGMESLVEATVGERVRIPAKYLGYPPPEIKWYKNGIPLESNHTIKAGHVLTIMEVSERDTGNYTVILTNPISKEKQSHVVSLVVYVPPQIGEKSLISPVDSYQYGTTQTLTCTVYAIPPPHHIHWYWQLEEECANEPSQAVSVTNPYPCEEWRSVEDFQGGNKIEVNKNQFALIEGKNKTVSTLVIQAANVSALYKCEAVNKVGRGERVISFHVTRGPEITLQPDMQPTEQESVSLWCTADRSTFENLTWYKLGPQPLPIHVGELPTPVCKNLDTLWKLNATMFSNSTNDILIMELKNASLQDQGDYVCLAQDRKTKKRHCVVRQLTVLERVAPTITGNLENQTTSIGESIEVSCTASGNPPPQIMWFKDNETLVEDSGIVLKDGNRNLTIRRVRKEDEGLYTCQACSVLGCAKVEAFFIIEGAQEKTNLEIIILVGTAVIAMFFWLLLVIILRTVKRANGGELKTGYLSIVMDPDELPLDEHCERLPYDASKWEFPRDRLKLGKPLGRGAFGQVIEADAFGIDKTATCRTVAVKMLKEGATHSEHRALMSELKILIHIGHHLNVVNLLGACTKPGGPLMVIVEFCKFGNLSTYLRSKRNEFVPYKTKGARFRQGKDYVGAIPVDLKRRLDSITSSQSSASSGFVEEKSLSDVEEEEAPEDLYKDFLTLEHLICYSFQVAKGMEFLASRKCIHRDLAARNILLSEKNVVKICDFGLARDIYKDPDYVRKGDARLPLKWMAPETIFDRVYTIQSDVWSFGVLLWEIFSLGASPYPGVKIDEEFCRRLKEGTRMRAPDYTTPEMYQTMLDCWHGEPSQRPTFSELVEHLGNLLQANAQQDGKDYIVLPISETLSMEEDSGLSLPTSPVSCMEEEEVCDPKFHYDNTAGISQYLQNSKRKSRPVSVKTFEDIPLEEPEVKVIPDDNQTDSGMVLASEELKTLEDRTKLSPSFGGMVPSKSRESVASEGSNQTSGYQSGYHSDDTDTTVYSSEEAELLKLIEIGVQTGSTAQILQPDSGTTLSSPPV
T1 sequence (Q9NZQ7 19-290): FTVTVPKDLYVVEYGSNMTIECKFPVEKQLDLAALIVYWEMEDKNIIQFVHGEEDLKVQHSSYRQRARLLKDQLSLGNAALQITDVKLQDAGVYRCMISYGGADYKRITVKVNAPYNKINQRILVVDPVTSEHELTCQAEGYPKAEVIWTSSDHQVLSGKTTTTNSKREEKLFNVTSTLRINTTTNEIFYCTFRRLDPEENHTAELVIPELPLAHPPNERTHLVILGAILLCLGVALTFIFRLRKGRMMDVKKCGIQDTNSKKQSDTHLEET

| IC50 [1] | IC50 [3] | IC50 [4] | IC50 [5] | PD-L1 (%) relative expression [6] | PD-L1 (%) relative expression [10] | melting point | Membrane VEGFR-2 (%) [13] | Total VEGFR-2 (%) [13] | inhibition at 10 µM ([14]; 10 µM, statement for HT-29 and HMEC-1, read-out: inhibition of both membrane and total VEGFR-2) | Membrane VEGFR-2 (%) [14] | Total VEGFR-2 (%) [14] | Structure (SMILES) | IC50 [2] | c-Myc (%) relative expression [7] | c-Myc (%) relative expression [8] | Living HT-29 cell proliferation (%) [9] | IC50 [11] | Minimum Active Conc. (inhibition of tube formation) [12] |
| --- | --- | --- | --- | --- | --- | --- | --- | --- | --- | --- | --- | --- | --- | --- | --- | --- | --- | --- |
| 38 ± 6 µM | 25 ± 2 µM | 30 ± 7 µM | 28 ± 5 µM |  |  | 174 °C |  |  |  |  |  | COc1ccc(/C=C\c2cccc(NC(=O)Nc3cccc(Br)c3)c2)cc1 [Compound 15] | 23 ± 2 µM |  |  |  | 24 ± 4 µM |  |
| 13 ± 3 µM | 0.2 ± 0.2 µM | 4 ± 1 µM | 0.7 ± 0.3 µM | 33 ± 10% | 50 ± 3% |  | 65 ± 9% | 83 ± 7% |  | 68 ± 9% | 95 ± 9% | COc1ccc(/C=C/c2cccc(NC(=O)Nc3ccc(OC)cc3)c2)cc1 [Compound 26] | 1.4 ± 0.6 µM | 57 ± 9% | 63 ± 7% | 62% | 1.9 ± 0.6 µM |  |
| 18 ± 3 µM | 22 ± 2 µM | 27 ± 1 µM | 25 ± 4 µM | 55 ± 11% | 59 ± 9% |  | 69 ± 8% | 98 ± 13% |  | 76 ± 5% | 93 ± 10% | COc1ccc(CCc2cccc(NC(=O)Nc3cccc(OC)c3)c2)cc1 [Compound 32] | 9.7 ± 0.8 µM | 69 ± 7% | 77 ± 15% |  | 7.1 ± 0.8 µM |  |

Further lines, the molecule ahead of its results:

| Structure (SMILES) | IC50 [1] | IC50 [3] | IC50 [4] | IC50 [5] | PD-L1 (%) relative expression [6] | PD-L1 (%) relative expression [10] | melting point | Membrane VEGFR-2 (%) [13] | Total VEGFR-2 (%) [13] | inhibition at 10 µM ([14]; 10 µM, statement for HT-29 and HMEC-1, read-out: inhibition of both membrane and total VEGFR-2) | Membrane VEGFR-2 (%) [14] | Total VEGFR-2 (%) [14] | IC50 [2] | c-Myc (%) relative expression [7] | c-Myc (%) relative expression [8] | Living HT-29 cell proliferation (%) [9] | IC50 [11] | Minimum Active Conc. (inhibition of tube formation) [12] |
| --- | --- | --- | --- | --- | --- | --- | --- | --- | --- | --- | --- | --- | --- | --- | --- | --- | --- | --- |
| Cc1c(COc2ccc(CN3CCCCC3C(=O)O)cc2Br)cccc1-c1ccccc1 (centres unmarked) [BMS-8, reference compound] | 6 ± 1 µM | 19 ± 2 µM | > 100 µM | 20 ± 3 µM | 62 ± 3% | 68 ± 5% |  |  |  |  |  |  | 60 ± 10 µM | 99 ± 4% | 60 ± 7% | 45% |  |  |
| COc1ccc(/C=C/c2cccc(NC(=O)Nc3ccc(Br)cc3)c2)cc1 [Compound 23] | 3 ± 0.4 µM | 0.4 ± 0.3 µM | 3.1 ± 0.1 µM | 0.3 ± 0.2 µM | 18 ± 5% | 16 ± 6% |  | 39 ± 5% | 74 ± 8% | > 50% | 36 ± 9% | 39 ± 8% | 0.7 ± 0.3 µM | 49 ± 8% | 34 ± 4% | 64% | 1.8 ± 0.3 µM | 1 µM |
| COc1ccc(CCc2cccc(NC(=O)Nc3ccc(OC)cc3)c2)cc1 [Compound 33] | 8 ± 3 µM | 4.4 ± 0.8 µM | 1.4 ± 0.5 µM | 1.5 ± 0.6 µM | 38 ± 13% | 42 ± 11% |  | 66 ± 5% | 93 ± 8% |  | 68 ± 13% | 100 ± 10% | 0.9 ± 0.07 µM | 70 ± 10% | 83 ± 12% | 62% | 0.9 ± 0.03 µM |  |
| CNC(=O)c1cc(Oc2ccc(NC(=O)Nc3ccc(Cl)c(C(F)(F)F)c3)cc2)ccn1 [Sorafenib, sorafenib, reference compound] | 27 ± 2 µM | 17 ± 4 µM | 6.1 ± 0.4 µM | 14 ± 4 µM |  |  |  |  |  |  |  |  | 5 ± 0.7 µM |  |  |  | 34 ± 3 µM | 10 µM |
| CCN(CC)CCNC(=O)c1c(C)[nH]c(/C=C2\C(=O)Nc3ccc(F)cc32)c1C [Sunitinib, sunitinib, reference compound] |  |  |  |  |  |  |  |  |  |  |  |  |  |  |  |  |  | 3 µM |
